Assays:
[1] = target: T1, Muscarinic acetylcholine receptor M1 (Homo sapiens) (UniProt P11229); experiment: Ratio of binding affinities at human cloned Muscarinic acetylcholine receptor M1 and human cloned Muscarinic acetylcholine receptor M2.
T1 sequence (whole entry): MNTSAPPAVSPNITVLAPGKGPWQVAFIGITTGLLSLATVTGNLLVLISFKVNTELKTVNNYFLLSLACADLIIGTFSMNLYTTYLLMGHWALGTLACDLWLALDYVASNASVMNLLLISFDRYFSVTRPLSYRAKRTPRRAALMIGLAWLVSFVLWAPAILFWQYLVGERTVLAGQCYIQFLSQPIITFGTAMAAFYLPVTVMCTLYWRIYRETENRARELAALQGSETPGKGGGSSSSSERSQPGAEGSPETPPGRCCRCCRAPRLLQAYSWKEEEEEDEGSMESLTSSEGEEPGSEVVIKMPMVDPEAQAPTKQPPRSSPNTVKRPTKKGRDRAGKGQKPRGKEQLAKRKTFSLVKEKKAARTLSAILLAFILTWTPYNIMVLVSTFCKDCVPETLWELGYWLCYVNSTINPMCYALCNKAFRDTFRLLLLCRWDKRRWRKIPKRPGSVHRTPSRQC

[2] = target: T2, Muscarinic acetylcholine receptor M2 (Homo sapiens, UniProt P08172); experiment: Binding affinity against human cloned Muscarinic acetylcholine receptor M2.
T2 sequence (P08172 whole entry): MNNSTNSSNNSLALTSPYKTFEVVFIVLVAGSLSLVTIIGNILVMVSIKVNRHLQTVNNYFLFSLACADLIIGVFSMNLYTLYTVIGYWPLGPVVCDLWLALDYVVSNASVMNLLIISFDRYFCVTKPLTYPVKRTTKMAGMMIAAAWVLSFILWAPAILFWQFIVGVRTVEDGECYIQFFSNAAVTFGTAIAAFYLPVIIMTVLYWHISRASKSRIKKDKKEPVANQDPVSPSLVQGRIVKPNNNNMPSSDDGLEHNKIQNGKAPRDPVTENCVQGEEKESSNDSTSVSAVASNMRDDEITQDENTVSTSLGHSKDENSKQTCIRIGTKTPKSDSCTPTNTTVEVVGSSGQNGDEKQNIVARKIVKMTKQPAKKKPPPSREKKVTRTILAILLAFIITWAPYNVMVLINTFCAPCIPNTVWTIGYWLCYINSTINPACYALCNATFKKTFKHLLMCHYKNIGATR

[3] = target: T2, Muscarinic acetylcholine receptor M2; experiment: Compound was tested for its binding affinity against cloned human Muscarinic acetylcholine receptor M2

Row | SMILES | Ratio [1] | Ki [2] [nM] | Ki [3] [nM]
1 | C[C@@H]1CN(C2CCNCC2)CCN1[C@@H](C)c1ccc(S(=O)(=O)c2ccc3c(c2)OCO3)cc1 | 4 | 9 | 
2 | COc1ccc(S(=O)(=O)c2ccc([C@@H](C)N3CCN(C4CCCCC4)C[C@H]3C)cc2)cc1 | 30 | 0.15 | 
3 | COc1ccc(S(=O)(=O)c2ccc(C(C#N)N3CCN(C4CCCCC4)C[C@@H]3C)cc2)cc1 (stereo not given in full) | 5 | 16 | 
4 | COc1ccc(S(=O)(=O)c2ccc([C@@H](C)N3CCN(C4CCCCC4)[C@@H](C)C3)cc2)cc1 | 10 | 0.04 | 
5 | COc1ccc(S(=O)(=O)c2ccc([C@H](C)N3CCN(C4CCCCC4)C[C@H]3C)cc2)cc1 | 44 | 0.3 | 
6 | CCCCS(=O)(=O)N1CCC(N2CCN([C@@H](C)c3ccc(S(=O)(=O)c4ccc5c(c4)OCO5)cc3)[C@H](C)C2)CC1 | 198 | 0.2 | 
7 | COc1ccc(S(=O)(=O)c2ccc(CN3CCN(C4CCCCC4)C[C@H]3C)cc2)cc1 | 23 | 0.3 | 
8 | CCCCC(=O)N1CCC(N2CCN([C@@H](C)c3ccc(S(=O)(=O)c4ccc5c(c4)OCO5)cc3)[C@H](C)C2)CC1 | 15 | 1.3 | 
9 | COc1ccc(S(=O)(=O)c2ccc([C@@H](C)N3CCN(C4CCCCC4)[C@H](C)C3)cc2)cc1 | 10 | 0.14 | 
10 | CCCS(=O)(=O)N1CCC(N2CCN([C@@H](C)c3ccc(S(=O)(=O)c4ccc5c(c4)OCO5)cc3)[C@H](C)C2)CC1 | 281 | 0.2 | 
11 | CCS(=O)(=O)N1CCC(N2CCN([C@@H](C)c3ccc(S(=O)(=O)c4ccc5c(c4)OCO5)cc3)[C@H](C)C2)CC1 | 109 | 0.7 | 

Next, values leading:

Row | Ratio [1] | Ki [2] [nM] | Ki [3] [nM] | SMILES
12 | 40 | 0.8 |  | C[C@@H]1CN(C2CCN(S(=O)(=O)c3ccccc3)CC2)CCN1[C@@H](C)c1ccc(S(=O)(=O)c2ccc3c(c2)OCO3)cc1
13 | 10 | 2.5 |  | CCNC(=O)N1CCC(N2CCN([C@@H](C)c3ccc(S(=O)(=O)c4ccc5c(c4)OCO5)cc3)[C@H](C)C2)CC1
14 | 32 | 0.9 |  | C[C@@H]1CN(C2CCN(C(=O)c3ccccc3)CC2)CCN1[C@@H](C)c1ccc(S(=O)(=O)c2ccc3c(c2)OCO3)cc1
15 | 36 |  | 0.16 | COc1ccc(S(=O)(=O)c2ccc(C(C#N)N3CCN(C4CCCCC4)C[C@H]3C)cc2)cc1 (stereo not given in full)
16 | 30 | 0.03 |  | C[C@@H]1CN(C2CCCCC2)CCN1[C@H](C)c1ccc(S(=O)(=O)c2ccc3c(c2)OCO3)cc1
17 | 61 | 0.03 |  | C[C@@H]1CN(C2CCCCC2)CCN1[C@@H](C)c1ccc(S(=O)(=O)c2ccc3c(c2)OCO3)cc1
18 | 10 |  |  | COc1ccc(S(=O)(=O)c2ccc(C(C)N3CCN(C4CCCCC4)CC3)cc2)cc1 (stereo not given)

— ChEMBL document CHEMBL1135227, “Substituted 2-(R)-methyl piperazines as muscarinic M(2) selective ligands” (Bioorg Med Chem Lett, 2002)
